Measurements published in PubChem BioAssay (NCI).
“And” between values parts separate entries of the source, which are not always exact repeats. Equal entries are not always repeated.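 Step 1: Grow cells in 96-well plates. Step 2: Expose to compound for 48 hours at 5 concentrations. Step 3: Interpolate endpoints linearly; if unreached, use highest concentration. GI50 = concentration required for 50% inhibition of growth. Definition used: TGI = concentration required for complete inhibition of growth.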

What was measured:
Assay in all cases: NCI-60 cell line screen, 48 h
IGROV1 ovarian = tested on: IGROV1 ovarian
MDA-MB-435 = tested on: MDA-MB-435
NCI-H522 lung = tested on: NCI-H522 lung
NCI/ADR-RES ovarian = tested on: NCI/ADR-RES ovarian
RPMI-8226 leukemia = tested on: RPMI-8226 leukemia
RXF 393 renal = tested on: RXF 393 renal
SK-MEL-2 melanoma = tested on: SK-MEL-2 melanoma
SN12C renal = tested on: SN12C renal
SNB-75 CNS = tested on: SNB-75 CNS
UACC-257 melanoma = tested on: UACC-257 melanoma

SMILES	GI50 (IGROV1 ovarian)	TGI (IGROV1 ovarian)	GI50 (MDA-MB-435)	TGI (MDA-MB-435)	GI50 (NCI-H522 lung)	TGI (NCI-H522 lung)	GI50 (NCI/ADR-RES ovarian)	TGI (NCI/ADR-RES ovarian)	GI50 (RPMI-8226 leukemia)	TGI (RPMI-8226 leukemia)	GI50 (RXF 393 renal)	TGI (RXF 393 renal)	GI50 (SK-MEL-2 melanoma)	TGI (SK-MEL-2 melanoma)	GI50 (SN12C renal)	TGI (SN12C renal)	GI50 (SNB-75 CNS)	TGI (SNB-75 CNS)	GI50 (UACC-257 melanoma)	TGI (UACC-257 melanoma)
COc1cccc(-c2nn(-c3ccccc3)cc2-c2ccnc(NCCNS(=O)(=O)c3ccc(Cl)cc3)c2)c1	6.63 µM	> 100 µM	3.81 µM	> 100 µM	2.47 µM	9.76 µM	4.29 µM	> 100 µM	2.74 µM	13.3 µM	5.03 µM	> 100 µM	3.84 µM	26.9 µM	5.45 µM	> 100 µM	7.92 µM	> 100 µM	7.03 µM	44.9 µM
O=C1/C(=C/c2cccc([N+](=O)[O-])c2)COc2ccc(O)c(O)c21	1.02 µM	2.97 µM	1.69 µM	3.77 µM	0.281 µM	1.36 µM	2.43 µM	18 µM	0.301 µM	0.93 µM	1.28 µM	2.69 µM	2 µM	4.35 µM	1.16 µM	2.51 µM	1.28 µM	5.72 µM	1.86 µM	4.81 µM
CCn1c(=O)c(-c2ccn[nH]2)cc2c(C)nc(N)nc21	0.32 µM	2.17 µM	1.69 µM	> 100 µM	1.5 µM	> 100 µM	1.4 µM	> 100 µM	0.821 µM	12.3 µM	0.426 µM	2.47 µM	2.25 µM	9.58 µM	1.4 µM	> 100 µM	0.182 µM	2.49 µM	1.38 µM	6.24 µM
CCC1=C(C)/C(=C/c2[nH]c(C)c(C(=O)CCCCC(=O)OC)c2C)N=C1c1ccc[nH]1	21.5 µM	> 63.8 µM	10.4 µM	46.1 µM	2.36 µM	6.37 µM	33.2 µM	> 96.4 µM	3.37 µM	13.9 µM	11.9 µM	38.6 µM	19.4 µM	46.2 µM	22.2 µM	> 100 µM	12.2 µM	27 µM	16.1 µM	44.2 µM
CC(C)(C)[Si](C)(C)OCC1CCC(n2cnc3c(NC(=O)c4ccccc4)ncnc32)O1 (stereo not given)	–	32.7 µM	–	29.2 µM	–	33.2 µM	–	33.4 µM	–	68.5 µM	–	37.8 µM	–	45.6 µM	–	34 µM	–	25.6 µM	–	33.4 µM
Cc1[nH]c(=O)[nH]c(=O)c1N(CCF)CCCl	284 µM	793 µM and 1260 µM and 1270 µM	–	876 µM	–	375 µM and 416 µM and 519 µM	443 µM and 206 µM	820 µM and 1130 µM and 1090 µM	161 µM and 190 µM and 122 µM	515 µM and 838 µM and 1270 µM	128 µM and 265 µM	296 µM and 662 µM and 596 µM	239 µM	447 µM and 832 µM and 808 µM	159 µM and 120 µM and 312 µM	480 µM and 641 µM and 1020 µM	268 µM and 592 µM and 493 µM	617 µM and 1420 µM and 1010 µM	228 µM	465 µM and 1070 µM and 855 µM
COc1cc(/C=C(/C)[N+](=O)[O-])ccc1O	2.89 µM and 1.57 µM	8.54 µM and 5.14 µM	2.16 µM and 1.64 µM	6.33 µM and 4.4 µM	0.46 µM and 0.282 µM	1.4 µM and 1.09 µM	3.18 µM and 3.08 µM	11.8 µM and 10.9 µM	0.737 µM and 1.73 µM	2.53 µM and 4.25 µM	1.72 µM and 1.8 µM	3.24 µM and 3.31 µM	2.15 µM and 1.7 µM	4.3 µM and 3.49 µM	2.2 µM and 2.43 µM	5.98 µM and 9.43 µM	3.64 µM and 1.91 µM	15.1 µM and 8.45 µM	1.66 µM and 1.61 µM	3.39 µM and 3.25 µM
COC(=O)/C=C/c1cc(O)c2c(c1)C(C(=O)OC)C(c1ccc(O)c(O)c1)O2 (stereo not given)	0.822 µM and 0.509 µM	33.8 µM and > 79.5 µM	–	0.0513 µM	0.0286 µM	3.45 µM and 0.379 µM	0.11 µM and 0.0614 µM	> 100 µM	0.132 µM	16.5 µM and 10.5 µM	0.0472 µM	86.4 µM and > 100 µM	0.454 µM and 0.093 µM	35.2 µM and > 55 µM	0.614 µM	> 100 µM	–	> 49.7 µM and 64.2 µM	11.5 µM and 4.5 µM	63.3 µM and 48.7 µM
C=C1C(=O)O[C@H]2[C@H]1CC/C(COC(=O)C(=O)c1c[nH]c3ccccc13)=C\CC[C@@]1(C)O[C@@H]21	2.11 µM	4.39 µM	2.63 µM	9.82 µM	0.878 µM	2.4 µM	3.92 µM	19.4 µM	2.07 µM	10.9 µM	2.01 µM	3.61 µM	1.63 µM	3.78 µM	2.72 µM	7.11 µM	2.29 µM	11.1 µM	1.64 µM	3.53 µM
CN(C)/[N+]([O-])=N/Oc1cc(Nc2cccc(C(=O)O)c2)c([N+](=O)[O-])cc1[N+](=O)[O-]	41.1 µM	> 100 µM	> 100 µM	> 100 µM	69.3 µM	> 100 µM	> 100 µM	> 100 µM	> 100 µM	> 100 µM	> 100 µM	> 100 µM	36 µM	> 100 µM	> 100 µM	> 100 µM	> 100 µM	> 100 µM	> 100 µM	> 100 µM
Cc1ccc(C)c(NC(=O)C(=O)C(c2cnc3ccc([N+](=O)[O-])cc3n2)[N+](=O)[O-])c1 (stereo not given)	–	83.8 µM	–	> 100 µM	–	> 100 µM	–	63.8 µM	–	39.4 µM	–	> 100 µM	–	> 100 µM	–	> 100 µM	–	> 100 µM	–	> 100 µM
CS(=O)(=O)c1ccc(Oc2cc(F)cc(C#N)c2)c2c1[C@H](O)[C@H](F)[C@@H]2F	> 100 µM	> 100 µM	> 100 µM	> 100 µM	> 100 µM	> 100 µM	> 100 µM	> 100 µM	> 100 µM	> 100 µM	> 100 µM	> 100 µM	> 100 µM	> 100 µM	> 100 µM	> 100 µM	> 100 µM	> 100 µM	> 100 µM	> 100 µM
O=[N+]([O-])c1ccc(N2CCN(Cc3ccccc3)CC2)c2c1no[n+]2[O-]	0.951 µM	2.66 µM	1.72 µM	3.38 µM	0.682 µM	2.16 µM	2.27 µM	12.3 µM	1.76 µM	4.64 µM	1.31 µM	2.76 µM	2.22 µM	4.76 µM	1.63 µM	3.53 µM	0.954 µM	2.26 µM	1.68 µM	3.86 µM
O=C1c2ccccc2-c2c1c1ccccc1c(=O)n2CCCNCCCn1c2c(c3ccccc3c1=O)C(=O)c1ccccc1-2	1.63 µM	> 50 µM	9.34 µM	22.9 µM	13.7 µM	> 50 µM	3.94 µM	17.3 µM	2.58 µM	15.9 µM	4.07 µM	> 29.1 µM	22.7 µM	> 50 µM	3.4 µM	14.9 µM	6.1 µM	> 50 µM	10.2 µM	25.7 µM
Cc1ccc(NC(c2ccccc2)c2ccc3cccnc3c2O)cc1 (stereo not given)	–	14 µM	–	19.3 µM	–	8.53 µM	–	15.2 µM	–	19.2 µM	–	22.8 µM	–	21 µM	–	22.4 µM	–	19.2 µM	–	25.8 µM
CC(C)(C)[OH+][O-].[O-]c1ccc(Cl)cc1C=Nc1ccc(Cl)cc1[O-].[O]=[V]	0.542 µM	14.2 µM	14.6 µM	> 100 µM	9.12 µM	25.1 µM	29.1 µM	> 100 µM	6.97 µM	> 100 µM	17.3 µM	36.6 µM	11.5 µM	28.2 µM	24.2 µM	> 100 µM	12.1 µM	30.8 µM	13.9 µM	36.4 µM
COc1ccc(C(=O)Cn2c(C(=O)c3ccc(OC)cc3)nc3ccccc32)cc1	5.09 µM	> 100 µM	0.284 µM	> 34.4 µM	2.19 µM	> 100 µM	0.671 µM	4.06 µM	1.52 µM	8.28 µM	2.07 µM	> 23.2 µM	12.6 µM	> 100 µM	> 92.9 µM	> 100 µM	2.16 µM	> 54.3 µM	53 µM	> 100 µM
COc1ccc(C(=O)/C=C/c2ccc(O)c(O)c2F)c(OC)c1	12.8 µM	75 µM and > 100 µM	2.51 µM	75 µM and 44.1 µM	0.481 µM	5.56 µM and 3.18 µM	4.16 µM	67.7 µM and > 100 µM	0.923 µM	31 µM and 8.25 µM	11.6 µM	26.4 µM and 32.1 µM	–	13.4 µM and 13.6 µM	2.42 µM	18.6 µM and 11.9 µM	4.53 µM	40.3 µM and 18.9 µM	10.5 µM	18.4 µM and 22.3 µM
Nc1ccccc1C#CC#Cc1ccccc1N	18.6 µM	86.2 µM	4.6 µM	31.3 µM	11.5 µM	38.6 µM	4.63 µM	29.7 µM	8.08 µM	> 100 µM	25.6 µM	67.7 µM	21.7 µM	51.7 µM	14.7 µM	31.4 µM	32.3 µM	> 100 µM	4.56 µM	24.5 µM
CC/C=C\C[C@H](O)C/C=C1/C(=O)C=C[C@@H]1C/C=C\CCCC(=O)NC(C)C	2.94 µM	10 µM	2.3 µM	6.51 µM	1.59 µM	3.24 µM	3.28 µM	13.6 µM	2.73 µM	7.02 µM	2.14 µM	3.94 µM	2.52 µM	6.88 µM	2.51 µM	6.35 µM	8.2 µM	21 µM	2.17 µM	6.22 µM
COc1ccc(CN2C(=O)/C(=C\c3cc(OC)c(OC)c(OC)c3)c3cc(OC)ccc32)cc1	1.8 µM	4.06 µM	2.88 µM	8.88 µM	1.32 µM	2.8 µM	2.69 µM	9.11 µM	1.89 µM	5.63 µM	1.63 µM	3.47 µM	1.92 µM	4.01 µM	3.53 µM	> 39.4 µM	2.17 µM	6.62 µM	1.94 µM	4.94 µM
